Measurements published in patent US20230121771A1, “A PHARMACEUTICAL COMBINATION OF AN ARTEMISININ COMPOUND, 5-AMINOLEVULINIC ACID OR METHYL-5-AMINOLEVULINIC ACID AND A CHEMOTHERAPEUTIC AGENT” (JLP Health GmbH, priority 2020, published 2023).

Assays:
Type in all cases: cell-based
[1] = system: human glioblastoma-like neoplastic organoid model; assay: Compound profiling in human glioblastoma-like neoplastic organoid model (p53, NF1, PTEN mutated); details: compound alone
Description: Tumor initiation was induced by either oncogene amplification, using a Sleeping Beauty (SB) transposase, or mutation of tumor suppressor genes, using the CRISPR-Cas9 system in day 10 old embryoid bodies (EBs). Plasmids carrying the transposase as well as GFP and the desired oncogenes or expressing Cas9 nuclease were introduced by electroporation. In brief, a mixture of 1 μg DNA and 100 μl nucleofector solution was added to 10 EBs and transferred to a nucleofection cuvette. The Lonza Nucleofector 2b and the A-023 program were used for electroporation/ nucleofection. […] Cerebral tumor organoids were treated with different compounds and the survival and growth of transformed as well as untransformed neurons was monitored. Fluorescence labeling of tumor cells allowed clear distinguishability of transformed cells as compared to non-labeled throughout the experiment using brightfield microscopy, as well as fluorescence imaging. The transformed tumor tissue and untransformed neurons within the same organoid was monitored using fluorescence imaging, as well as brightfield microscopy throughout the experiment. At the endpoint of the treatment (d5 or d7 respectively), the number of GFP-positive cells was assessed by flow cytometry. […] Brightfield and green fluorescence images were taken from the same area. […]

[2] = system: human primary glioblastoma cell lines; assay: Survival of artemisinin treated primary human glioblastoma cells upon 5-ALA (CellTiter-Glo, 72 h); details: three independently derived human primary glioblastoma cell lines
Description: […] Cell viability was assessed using automated cell counting (high-throughput flow cytometry), Alamar Blue staining (Invitrogen, DAL1100) or CellTiter-Glo Luminescent Assay (Promega, G7570, according to the manufacturer’s protocol) respectively.

glioblastoma cell lines = assay: 6-day cell survival assay (Cell Titer Glo 2.0), glioblastoma cell lines; details: 6-day treatment
Description: Cell survival assays (FIGS. 12-19) were performed in 96-well plates in technical duplicates. Treatments started 24 hours post cell plating and lasted for 6-days prior to cell viability assessment with the Cell Titer Glo 2.0 Luminescent assay (Promega, G9242).

[3] = system: neuroblastoma cells (SHSY5Y), Jurkat and HL-60 cells; assay: ROS levels by Dihydroethidium (DHE) staining and flow cytometry in cell lines; details: SHSY5Y and Jurkat cells; artemisinin 0.5 µM, 5-ALA 0.25 mM
Description: Treated cells were collected, washed with 1x HBSS (without Ca2+ and Mg2+), incubated with 1mM DHE (Dihydroethidium (Hydroethidine), Invitrogen, D11347) in 1x HBSS for 45 min at 37° C., washed twice and counterstained with DAPI or a viability dye (eBioscience™ Fixable Viability Dye eFluor™ 780, 65-0865-18) for 10 min on ice. Cells were then collected, strained and analysed using flow cytometry for DHE in the red fluorescent spectrum (PE channel).

mouse ESCs = assay: Cell survival of artemisinin treated mouse embryonic stem cells (Alamar Blue, 48 h); details: artemisinin combined with acifluorfen or 5-ALA (0.5 mM)
Description: For dosage responses, cells were seeded in 96-wells (25.000/ 96-well, in triplicate -where indicated) and subjected to compounds for 48 h. Cell viability was assessed using automated cell counting (high-throughput flow cytometry), Alamar Blue staining (Invitrogen, DAL1100) or CellTiter-Glo Luminescent Assay (Promega, G7570, according to the manufacturer’s protocol) respectively.

Structure (SMILES): NCC(=O)CCC(=O)O [5-ALA, 5-amino-4-oxopentanoic acid]
- survival of untransformed and transformed cells [1]: little effect on the survival of untransformed cells as well as transformed cells
- sensitivity to artemisinin cytotoxicity upon 5-ALA [2]: induced artemisinin hypersensitivity to artemisinin cytotoxicity
- cell survival compared to untreated controls (glioblastoma cell lines): more potent than Methyl-5-ALA
- ROS levels (DHE staining, MFI) [3]: triggered ROS
- susceptibility to artemisinin (cell survival) (mouse ESCs): increased the sensitivity to the anti-malarial compound
